Laboratory results from US20160340683A1, “NANOCARRIER BASED PLANT TRANSFECTION AND TRANSDUCTION” (HER MAJESTY THE QUEEN IN RIGHT OF CANADA AS REPRESENTED BY …, priority 2007, published 2016).

These sequences were tested on isolated microspores of Triticale (variety Sunray) (assay: CPP delivery of GUS enzyme into isolated microspores, GUS staining). Conditions: GUS enzyme cargo:CPP 1:4, 1 hour at 37° C., three repeats.
Format: cell-based
Method: Triticale line Sunray grown in a growth cabinet with a photoperiod of 19 h day (intensity 300 μE m-2 s-1), and temperature 18-15° C. (day-night) with a relative humidity at about 70% was used as the donor plant material. The plants were fertilized every 2 weeks (20-20-20, 200 ppm) and treated with 2.5 ml I-1 Tilt™ (propiconazole, Syngenta) during the tillering stage and Intercept™ (0.004 g per litre of soil, Imidacloprid, Bayer) once sufficient root development was established. The first 10 tillers from each pot were harvested when the spike was at 3-4 cm, depending on the crop, from emergence from the boot. These tillers (to be used for microspore isolation) were subjected to pre-treatment in a refrigerator (4° C.) for 21 days with their bases in distilled water and their heads wrapped in aluminum foil. After 21±3 days of pre-treatment, the spikes were excised from their tillers and after an evaluation of their general appearance, only the most homogenous spikes were used. After confirming microspores at mid to bi-nucleate stage from a median floret, using acetocarmine staining, the tillers were processed for extraction.
Awns were removed with scissors in a laminar flow hood. Eight-fourteen spikes were used for microspore isolation. They were sterilized with 10% bleach (5.25% sodium hypochlorite) for 3 min followed by rinsing in sterile double distilled water four times of 1 min each with constant agitation. Outer glumes were removed and florets from all the spikes were aseptically dissected and transferred to a sterile and refrigerated 110 ml Warring blender cup (VWR international, #58983-093) containing 50 ml filter sterilized extraction buffer at 4° C. Florets were then blended twice for 7 s at low speed (18000 rpm). The slurry was then poured through a 1 mm sieve followed by pouring through a 100 μm sterile mesh (VWR International, #CA21008-950) into two 50 ml centrifuge tubes (25 ml each). The blender cup was rinsed with 50 ml extraction buffer at 4° C. and poured through the 100 μm mesh and was added to the first aliquot in the 50 ml tubes. The cells were then pelleted by centrifugation (100×g for 5 min at 4° C.) using a swinging bucket rotor. After pouring off the supernatant, the microspore-containing pellets were pooled together in one 50 ml tube and re-suspended in 50 ml cold extraction buffer. The cells were pelleted again with centrifugation (100×g for 5 min at 4° C.), the supernatant poured off and the pellet was transferred to a 15 ml tube. After re-suspending the pellet in CIMC Wash Buffer supplemented with 10 microM SS-31 peptide, it was subjected to wash and centrifugation using the above conditions. The supernatant was removed and the pellet was re-suspended in CIMC Wash buffer and centrifugation was repeated as above. The pellet was then suspended in 7 mL of 20% maltose at 4° C., layered with 1 mL of CIMC wash buffer and was centrifuged at 100 g for 13 min at 4° C. A band of microspores formed at the interface was collected in a new 15 ml tube. The cells were diluted with CIMC wash solution and subsequently collected by centrifugation at 150 g for 5 min. The supernatant was removed and the cells were finally suspended in a total volume of 1.4 ml of appropriate solution. After counting the cells using a haemocytometer, aliquots of 100,000 cells in 200 μl volume were prepared in 2 ml microcentrifuge tubes to be ready for transduction.
Peptide stock solutions were made in water at 1 μg/μl concentration. CPP (Nanocarrier) and GUS enzyme (cargo) were first prepared in separate microcentrifuge tubes. A total of 4 μg of CPP was prepared in sterile water to a final volume of 100 μl. Similarly, 1 μg of GUS enzyme was added to sterile water to a final volume of 100 μl. The contents of the two tubes were mixed together giving a ratio of 1:4 protein cargo:CPP. The complex was incubated for 30 min at room temperature (RT). Chariot (PAP1) protein delivering reagent was used as a positive control in the experiments. […]
KAKKNRSHIGKLKMTKTSGRKRSR [CPP21] was tested, and the “Average Transduction Efficiency” value was 0%. For KEKKKERRGVRDKERDK [CPP53], the “Average Transduction Efficiency” value was 0%. With KGHRFRSKFRHYRFRFR [CPP45] the “Average Transduction Efficiency” value was 0%. In the case of KKKGKGKKKKQGK [CPP4], the “Average Transduction Efficiency” value is reported as 0%. In the case of KKKKKKKRPTALTPTPSLLRRRRRRR [CPP26], the “Average Transduction Efficiency” value is reported as 0%. With KRKKSGKKKKIGRFLSRLVGAEKRR [CPP9] the “Average Transduction Efficiency” value was 5.79%. For KRKPKGGDAAEGSEKRKPKKKK [CPP16], the “Average Transduction Efficiency” value was 0%. In the case of KRRRSWRRRRSRTRQRRRRSRRRRRRRR [CPP41], the “Average Transduction Efficiency” value is reported as 21.17%. In the case of KSKANRHRHHRRHRQQKPTTTRRRRR [CPP64], the “Average Transduction Efficiency” value is reported as 5.40%. With KTAATTLRRRRRRRRGRR [CPP28] the “Average Transduction Efficiency” value was 5.61%. In the case of MALERPWKRRRRRRR [CPP47], the “Average Transduction Efficiency” value is reported as 0%. For MDERRRRRRRLTATRKVAAARRRRKRR [CPP54], the “Average Transduction Efficiency” value was 6.21%. In the case of MRRRRRRRRR [CPP48], the “Average Transduction Efficiency” value is reported as 1.09%. For RAGVDGRGRRRRRRRR [CPP50], the “Average Transduction Efficiency” value was 1.31%. In the case of RARRRSTARRRKRRTPTRSGR [CPP32], the “Average Transduction Efficiency” value is reported as 1.26%. With RAWYRFRHLVRGKWRERLRRKFK [CPP62] the “Average Transduction Efficiency” value was 9.78%. In the case of RCRRRRRRRETTSR [CPP67], the “Average Transduction Efficiency” value is reported as 0%. For RKEKKRIKQRKAFIMAEKKKRK [CPP13], the “Average Transduction Efficiency” value was 0%. RKKKGKRKEERER [CPP55] was tested, and the “Average Transduction Efficiency” value was 0%. For RKQPGRKPGVRTARPKRSKKSQLKK [CPP58], the “Average Transduction Efficiency” value was 0%. With RKRKEENTGRRRRRRRERKRR [CPP22] the “Average Transduction Efficiency” value was 1.94%. RKRKRGKGIGSGRGRGRGR [CPP43] was tested, and the “Average Transduction Efficiency” value was 0%. With “RKRKRGKGIGSGRGRGRGRASGSEKGRGSGKGKAK [CPP44]” the “Average Transduction Efficiency” value was 11.27%. RLKRRRRRRRKVSRR [CPP33] was tested, and the “Average Transduction Efficiency” value was 15.67%. In the case of RLRRLLLPLRRRRRLRQRRR [CPP25], the “Average Transduction Efficiency” value is reported as 8.7%. In the case of RPLPLPLPLPRGPRRRRRRR [CPP30], the “Average Transduction Efficiency” value is reported as 0%. In the case of RRARRRTRRGGGEAGRRQERRRRRRRR [CPP31], the “Average Transduction Efficiency” value is reported as 0%. For RRDGVPRRRRRRRHMGRQR [CPP27], the “Average Transduction Efficiency” value was 2.06%. In the case of RRFRRTAPRAAGEARGLRRLRKSR [CPP57], the “Average Transduction Efficiency” value is reported as 5.77%. With RRGWRWRSAPRGGSRRRRRRRR [CPP12] the “Average Transduction Efficiency” value was 5.25%. With RRHRQQKPTTTRRRRR [CPP65] the “Average Transduction Efficiency” value was 0%. In the case of RRKNDKPKTGGEKKSTKDAPESSKKKNRK [CPP61], the “Average Transduction Efficiency” value is reported as 0%. With RRLRCRREGKEKR [CPP60] the “Average Transduction Efficiency” value was 0%. For RRLTTGLSFYSKPYRRSRGPRHRTEKRKRIR [CPP56], the “Average Transduction Efficiency” value was 5.47%. For RRPHSRHRRRRRRR [CPP10], the “Average Transduction Efficiency” value was 0%. For RRRGIKPNAKRRRRRRRR [CPP23], the “Average Transduction Efficiency” value was 0%. For RRRGRRRRRRRRQRQQRR [CPP6], the “Average Transduction Efficiency” value was 15.07%. With RRRGRRRRRRRRQRQQRRQEGNRRR [CPP5] the “Average Transduction Efficiency” value was 5.88%. In the case of RRRIAGSALVGAPPQARRRRRRR [CPP52], the “Average Transduction Efficiency” value is reported as 0%. RRRKGSSYRRRRRRRRR [CPP20] was tested, and the “Average Transduction Efficiency” value was 0%. In the case of RRRPRPARLRHRLHRPINLKFERK [CPP15], the “Average Transduction Efficiency” value is reported as 9.23%. With RRRQERRER [CPP63] the “Average Transduction Efficiency” value was 0%. RRRRARGKRCWLRRRRRR [CPP49] was tested, and the “Average Transduction Efficiency” value was 11.89%.
